In patent US20230365592A1 (Agios Pharmaceuticals, Inc., priority 2022, published 2023):

Target: T1, human PAH with the R408W mutation (Homo sapiens, UniProt P00439, R408W)
T1 construct: expressed in transfected cells
T1 sequence (P00439 1-452 R408W): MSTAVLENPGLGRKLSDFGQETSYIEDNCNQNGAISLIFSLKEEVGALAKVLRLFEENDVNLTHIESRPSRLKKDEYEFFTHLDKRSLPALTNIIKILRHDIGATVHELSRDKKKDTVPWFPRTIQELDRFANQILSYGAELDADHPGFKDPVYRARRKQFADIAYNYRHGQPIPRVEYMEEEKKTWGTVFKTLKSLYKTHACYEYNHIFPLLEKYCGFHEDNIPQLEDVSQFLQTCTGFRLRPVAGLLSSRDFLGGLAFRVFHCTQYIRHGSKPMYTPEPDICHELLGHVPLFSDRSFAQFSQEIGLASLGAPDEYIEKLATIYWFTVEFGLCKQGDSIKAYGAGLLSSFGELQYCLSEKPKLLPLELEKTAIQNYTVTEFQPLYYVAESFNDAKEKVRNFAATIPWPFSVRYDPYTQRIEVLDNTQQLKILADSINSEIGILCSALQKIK
Assay: Cell Based Phenylalanine Flux Assay;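 also: after compound treatment, cells received sepiapterin plus isotope-labelled Phenylalanine for 4 hours, then labelled Tyrosine in the medium was quantified, 10-point 2-fold dilution series run in duplicate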
Conditions: A375 cells expressing R408W PAH; 24 hrs with compound, then 20 µM sepiapterin and 800 µM 13C9,15N-Phenylalanine for 4 hours; 13C-Tyrosine by LC-MS; average where tested multiple times; read-out: AC50

| SMILES | AC50 [nM] |
| --- | --- |
| O=C(c1nnc(CCN2CC(F)C2)o1)N1CCc2[nH]cnc2C1c1cc2ccccn2n1 (stereo not drawn) [2-[2-(3-fluoroazetidin-1-yl)ethyl]-5-(4-{pyrazolo[1,5-a]pyridin-2-yl}-1H,4H,5H,6H,7H-imidazo[4,5-c]pyridine-5-carbonyl)-1,3,4-oxadiazole] | > 5000 |
| O=C(C1CC1(F)F)N1CCc2[nH]cnc2C1c1cc2ccccn2n1 [4S enantiomer of 5-[(1S)-2,2-difluorocyclopropanecarbonyll-4] | 1000 to 5000 |
| CC(O)c1nnc(C(=O)N2CCc3[nH]cnc3C2c2cc3ccccn3n2)o1 [4S enantiomer of (1R)-1-{5-[4-{pyrazolo[1,5-a]pyridin-2-yl}-] | 1000 to 5000 |
| Cc1nc(C(C)O)oc1C(=O)N1CCc2[nH]cnc2C1c1cc2ccccn2n1 [4S enantiomer of (1S)-1-14-methyl-5-[4-{pyrazolo[1,5-a]pyrid] | 1000 to 5000 |

Same assay, conditions: A375 cells expressing human PAH R408W; 24 hrs compound incubation; 13C-Tyrosine by LC-MS; average where tested multiple times; read-out: AC50

| SMILES | AC50 [nM] |
| --- | --- |
| Fc1cccc(F)c1-c1nnc(N2CCc3[nH]cnc3[C@@H]2c2cc3ccccn3n2)o1 (single isomer, unassigned) [Example 1842] | > 5000 |
| CC(O)c1nc(Cl)c(C(=O)N2CCc3[nH]cnc3[C@H]2c2cc3ccccn3n2)o1 (single isomer, unassigned) [Example 2376] | 1000 to 5000 |
| CC(O)c1nc(Cl)c(C(=O)N2CCc3[nH]cnc3[C@H]2c2cc3ccccn3n2)o1 (single isomer, unassigned) [Example 2377] | 1000 to 5000 |

Same assay, conditions: A375 cells expressing human R408W PAH; 24 hrs compound incubation; 13C-Tyrosine by LC-MS; average where tested multiple times; read-out: AC50

| AC50 [nM] | SMILES |
| --- | --- |
| < 500 | CC(O)c1nc(Br)c(C(=O)N2CCc3[nH]cnc3[C@H]2c2cc3ccccn3n2)o1 (single isomer, unassigned) [Example 996] |
| 500 to 1000 | O=C(c1cnn2ccccc12)N1CCc2[nH]cnc2[C@H]1c1cc2ccccn2n1 [Example 600, (S)-(4-(pyrazolo[1,5-a]pyridin-2-yl)-6,7-dihydro-1H-imidazo[4,5-c]pyridin-5(4H)-yl)(pyrazolo[1,5-a]pyridin-3-yl)methanone] |
| > 5000 | O=C(c1cnn2ccccc12)N1CCc2[nH]cnc2[C@@H]1c1cc2ccccn2n1 [Example 601, (R)-(4-(pyrazolo[1,5-a]pyridin-2-yl)-6,7-dihydro-1H-imidazo[4,5-c]pyridin-5(4H)-yl)(pyrazolo[1,5-a]pyridin-3-yl)methanone] |
| < 500 | O=C(c1cncs1)N1CCc2[nH]cnc2[C@H]1c1cc2ccccn2n1 [Example 602, (S)-(4-(pyrazolo[1,5-a]pyridin-2-yl)-6,7-dihydro-1H-imidazo[4,5-c]pyridin-5(4H)-yl)(thiazol-5-yl)methanone] |
| 1000 to 5000 | O=C(c1cncs1)N1CCc2[nH]cnc2[C@@H]1c1cc2ccccn2n1 [Example 603, (R)-(4-(pyrazolo[1,5-a]pyridin-2-yl)-6,7-dihydro-1H-imidazo[4,5-c]pyridin-5(4H)-yl)(thiazol-5-yl)methanone] |
| > 5000 | Cc1ncoc1C(=O)N1CCc2[nH]cnc2[C@@H]1c1cc2ccccn2n1 [Example 607, (R)-(4-methyloxazol-5-yl)(4-(pyrazolo[1,5-a]pyridin-2-yl)-6,7-dihydro-1H-imidazo[4,5-c]pyridin-5(4H)-yl)methanone] |
| 1000 to 5000 | O=C(Cc1nc(C(F)(F)F)cs1)N1CCc2[nH]cnc2[C@H]1c1cc2ccccn2n1 [Example 608, (S)-1-(4-(pyrazolo[1,5-a]pyridin-2-yl)-6,7-dihydro-1H-imidazo[4,5-c]pyridin-5(4H)-yl)-2-(4-(trifluoromethyl)thiazol-2-yl)ethanone] |
| > 5000 | O=C(Cc1nc(C(F)(F)F)cs1)N1CCc2[nH]cnc2[C@@H]1c1cc2ccccn2n1 [Example 609, (R)-1-(4-(pyrazolo[1,5-a]pyridin-2-yl)-6,7-dihydro-1H-imidazo[4,5-c]pyridin-5(4H)-yl)-2-(4-(trifluoromethyl)thiazol-2-yl)ethanone] |
| < 500 | O=C(c1ocnc1C(F)(F)F)N1CCc2[nH]cnc2[C@H]1c1cc2ccccn2n1 [Example 610, (S)-(4-(pyrazolo[1,5-a]pyridin-2-yl)-6,7-dihydro-1H-imidazo[4,5-c]pyridin-5(4H)-yl)(4-(trifluoromethyl)oxazol-5-yl)methanone] |
| 1000 to 5000 | O=C(c1ocnc1C(F)(F)F)N1CCc2[nH]cnc2[C@@H]1c1cc2ccccn2n1 [Example 611, (R)-(4-(pyrazolo[1,5-a]pyridin-2-yl)-6,7-dihydro-1H-imidazo[4,5-c]pyridin-5(4H)-yl)(4-(trifluoromethyl)oxazol-5-yl)methanone] |
| < 500 | CC(F)(F)c1ncc(C(=O)N2CCc3[nH]cnc3[C@H]2c2cc3ccccn3n2)s1 [Example 612, (S)-(2-(1,1-difluoroethyl)thiazol-5-yl)(4-(pyrazolo[1,5-a]pyridin-2-yl)-6,7-dihydro-1H-imidazo[4,5-c]pyridin-5(4H)-yl)methanone] |
| 500 to 1000 | O=C(c1nnc(-c2ncccc2F)o1)N1CCc2[nH]cnc2[C@H]1c1cc2ccccn2n1 [Example 616, (S)-(5-(3-fluoropyridin-2-yl)-1,3,4-oxadiazol-2-yl)(4-(pyrazolo[1,5-a]pyridin-2-yl)-6,7-dihydro-1H-imidazo[4,5-c)pyridin-5(4H)-yl)methanone] |
| > 5000 | O=C(c1nnc(-c2ncccc2F)o1)N1CCc2[nH]cnc2[C@@H]1c1cc2ccccn2n1 [Example 617, (R)-(5-(3-fluoropyridin-2-yl)-1,3,4-oxadiazol-2-yl)(4-(pyrazolo[1,5-a]pyridin-2-yl)-6,7-dihydro-1H-imidazo[4,5-c]pyridin-5(4H)-yl)methanone] |
| 1000 to 5000 | O=C(c1ocnc1C1CC1)N1CCc2[nH]cnc2[C@@H]1c1cc2ccccn2n1 [Example 619, (R)-(4-cyclopropyloxazol-5-yl)(4-(pyrazolo[1,5-a]pyridin-2-yl)-6,7-dihydro-1H-imidazo[4,5-c]pyridin-5(4H)-yl)methanone] |
| 1000 to 5000 | O=C(c1oc(-c2ccccn2)nc1C1CC1)N1CCc2[nH]cnc2[C@@H]1c1cc2ccccn2n1 [Example 623, (R)-(4-cyclopropyl-2-(pyridin-2-yl)oxazol-5-yl)(4-(pyrazolo[1,5-a]pyridin-2-yl)-6,7-dihydro-1H-imidazo[4,5-c]pyridin-5(4H)-yl)methanone] |

The remaining lines, values behind:

| SMILES | AC50 [nM] |
| --- | --- |
| Cn1ccc(-c2nnc(C(=O)N3CCc4[nH]cnc4[C@H]3c3cc4c(C(F)(F)F)cccn4n3)o2)n1 (single isomer, unassigned) [Example 836] | < 500 |
| CC(O)c1nc(Br)c(C(=O)N2CCc3[nH]cnc3[C@H]2c2cc3ccccn3n2)o1 (single isomer, unassigned) [Example 997] | < 500 |
| O=C(c1nnc(-c2ccccn2)o1)N1CCc2[nH]cnc2[C@@H]1c1cc2ccccn2n1 [Example 604, (R)-(4-(pyrazolo[1,5-a]pyridin-2-yl)-6,7-dihydro-1H-imidazo[4,5-c]pyridin-5(4H)-yl)(5-(pyridin-2-yl)-1,3,4-oxadiazol-2-yl)methanone] | > 5000 |
| O=C(c1nnc(-c2ccccn2)o1)N1CCc2[nH]cnc2[C@H]1c1cc2ccccn2n1 [Example 605, (S)-(4-(pyrazolo[1,5-a]pyridin-2-yl)-6,7-dihydro-1H-imidazo[4,5-c]pyridin-5(4H)-yl)(5-(pyridin-2-yl)-1,3,4-oxadiazol-2-yl)methanone] | 500 to 1000 |
| Cc1ncoc1C(=O)N1CCc2[nH]cnc2[C@H]1c1cc2ccccn2n1 [Example 606, (S)-(4-methyloxazol-5-yl)(4-(pyrazolo[1,5-a]pyridin-2-yl)-6,7-dihydro-1H-imidazo[4,5-c]pyridin-5(4H)-yl)methanone] | < 500 |
| O=C(CC1CC1)N1CCc2[nH]cnc2[C@H]1c1cc2ccccn2n1 [Example 614, (S)-2-cyclopropyl-1-(4-(pyrazolo[1,5-a]pyridin-2-yl)-6,7-dihydro-1H-imidazo[4,5-c]pyridin-5(4H)-yl)ethanone] | < 500 |
| O=C(CC1CC1)N1CCc2[nH]cnc2[C@@H]1c1cc2ccccn2n1 [Example 615, (R)-2-cyclopropyl-1-(4-(pyrazolo[1,5-a]pyridin-2-yl)-6,7-dihydro-1H-imidazo[4,5-c]pyridin-5(4H)-yl)ethanone] | 1000 to 5000 |
| O=C(c1ocnc1C1CC1)N1CCc2[nH]cnc2[C@H]1c1cc2ccccn2n1 [Example 618, (S)-(4-cyclopropyloxazol-5-yl)(4-(pyrazolo[1,5-a]pyridin-2-yl)-6,7-dihydro-1H-imidazo[4,5-c]pyridin-5(4H)-yl)methanone] | < 500 |
| O=C(c1nnc(C2CC2)o1)N1CCc2[nH]cnc2[C@H]1c1cc2ccccn2n1 [Example 620, (S)-(5-cyclopropyl-1,3,4-oxadiazol-2-yl)(4-(pyrazolo[1,5-a]pyridin-2-yl)-6,7-dihydro-1H-imidazo[4,5-c]pyridin-5(4H)-yl)methanone] | 1000 to 5000 |
| O=C(c1nnc(C2CC2)o1)N1CCc2[nH]cnc2[C@@H]1c1cc2ccccn2n1 [Example 621, (R)-(5-cyclopropyl-1,3,4-oxadiazol-2-yl)(4-(pyrazolo[1,5-a]pyridin-2-yl)-6,7-dihydro-1H-imidazo[4,5-c]pyridin-5(4H)-yl)methanone] | > 5000 |
| CC(C)(O)c1nc(C2CC2)c(C(=O)N2CCc3[nH]cnc3[C@H]2c2cc3ccccn3n2)o1 [Example 624, (S)-(4-cyclopropyl-2-(2-hydroxypropan-2-yl)oxazol-5-yl)(4-(pyrazolo[1,5-a]pyridin-2-yl)-6,7-dihydro-1H-imidazo[4,5-c]pyridin-5(4H)-yl)methanone] | 1000 to 5000 |
